Test results: patent US8618138B2, “Indole amide derivatives and related compounds for use in the treatment of neurodegenerative diseases” (Katholieke Universiteit Leuven, K.U. Leuven R&D, priority 2009, dated 2013)
pEC50: −log10 of the molar value.

system: M17-TAU P301L cells; assay: TAU cytotoxicity assay: LDH leakage of retinoic acid incubated M17-TAU P301L cells; type: cell-based, human; settings: Homo sapiens, 168 h, reduction of LDH activity of retinoic acid incubated M17-TAU P301L cells, 7 days
Source text: A TAU expression plasmid was constructed by sub-cloning the cDNA of human TAU-P301 L (encoding for TAU with proline 301 substituted by a leucine residue) into mammalian expression vector pcDNA3.1 resulting in plasmid pcDNA3.1-TAU P301L. Plasmids pcDNA3.1 and pcDNA3.1-TAU P301L were transfected to human neuroblastoma cells ([…]; ATCC No. CRL-2267) and independent clonal lines with the plasmids stably integrated into the genome were selected. […] Expression of the TAU P301L genes in the cell lines was confirmed by Western analysis.
In degenerated or dead cells lactate dehydrogenase (LDH) is leaked out of the cells into the extracellular environment due to a loss of plasma-membrane integrity. This principle was used to determine cytotoxicity by quantifying the level of leaked LDH into the growth medium.
The detailed method for determining TAU cytotoxicity was as follows: From appropriate precultures of M17-3.1 and M17-TAU(P301L) cells were seeded at 2500 cells/cm2 in Optimem Reduced Serum without phenol red (Gibco, Cat. 31985-047) supplemented with 1% fetal calf serum, 1 mM sodium pyruvate, 1× non-essential amino acids, 500 μg/ml G418 0.5× antibiotic/antimycotic. After 3 h of incubation at 37° C./5% CO2 1 volume of Optimem Reduced Serum (same as described above; except without fetal calf serum) supplemented with 2.5 μM retinoic acid (RA) was added. The cells were further incubated for 7 days. Subsequently, LDH activity was determined using Promega Cytotox 96 Non-Radioactive cytotoxicity assay, (Cat. G1780) according the supplier's instructions.
The M17-TAU P301L cell line made it possible to assess the ability of novel compounds to counteract TAU cytotoxicity. […] These measurements were used to calculate EC50 values of table 2.
Exemplary compounds of the present invention are shown in table 2, with their chemical name and their EC50 value (expressed in nM) as determined from example 196 in the Tau-induced toxicity experiment.

| SMILES | pEC50 |
| --- | --- |
| O=C(c1cc(Cc2cc(F)ccc2F)on1)N1CCC(c2c[nH]c3ccccc23)CC1 [Example D138, (4-(1H-indol-3-yl)piperidin-1-yl)(5-(2,5-difluorobenzyl)isoxazol-3-yl)methanone] | 6.38 |
| O=C(NCCc1c[nH]c2ccc(Cl)cc12)c1cc(Cc2ccc(C(F)(F)F)cc2)on1 [Example D9, N-(2-(5-chloro-1H-indol-3-yl)ethyl)-5-(4-(trifluoromethyl)benzyl)isoxazole-3-carboxamide] | 7.80 |
| COc1ccc2c(CCNC(=O)c3cc(Cc4cccc(F)c4)on3)c[nH]c2c1 [Example D74, 5-(3-fluorobenzyl)-N-(2-(6-methoxy-1H-indol-3-yl)ethyl)isoxazole-3-carboxamide] | 6.27 |
| Cc1ccccc1N1CCC(C(=O)NCCc2c[nH]c3ccc(Cl)cc23)C1=O (centres unmarked) [Example D158, N-(2-(5-chloro-1H-indol-3-yl)ethyl)-2-oxo-1-o-tolylpyrrolidine-3-carboxamide] | 5.99 |
| O=C(NCCc1c[nH]c2ccc(Cl)cc12)c1cc(Cc2ccncc2)on1 [Example D41, N-(2-(5-chloro-1H-indol-3-yl)ethyl)-5-(pyridin-4-ylmethyl)isoxazole-3-carboxamide] | 7.04 |
| O=C(NCCc1c[nH]c2ccc(Cl)cc12)c1cc(CO)on1 [Example D121, N-(2-(5-chloro-1H-indol-3-yl)ethyl)-5-(hydroxymethyl)isoxazole-3-carboxamide] | 6.98 |
| O=C(NCCc1c[nH]c2ccc(Cl)cc12)c1noc(Cc2ccccc2F)n1 [Example D170, N-(2-(5-chloro-1H-indol-3-yl)ethyl)-5-(2-fluorobenzyl)-1,2,4-oxadiazole-3-carboxamide] | 7.35 |
| O=C(NCCc1c[nH]c2ccc(Cl)cc12)c1noc(Cc2ccc(OC(F)(F)F)cc2)n1 [Example D185, N-(2-(5-chloro-1H-indol-3-yl)ethyl)-5-(4-(trifluoromethoxy)benzyl)-1,2,4-oxadiazole-3-carboxamide] | 7.38 |
| O=C(NCCc1c[nH]c2ccc(Cl)cc12)C1CCN(c2c(F)cccc2F)C1=O (centres unmarked) [Example D151, N-(2-(5-chloro-1H-indol-3-yl)ethyl)-1-(2,6-difluorophenyl)-2-oxopyrrolidine-3-carboxamide] | 6.25 |
| O=C(NCCc1c[nH]c2ccc(Cl)cc12)c1noc(Cc2cccc(Cl)c2)n1 [Example D190, N-(2-(5-chloro-1H-indol-3-yl)ethyl)-5-(3-chlorobenzyl)-1,2,4-oxadiazole-3-carboxamide] | 7.60 |
| COc1ccc2[nH]cc(CCNC(=O)c3c(-c4ccccc4)noc3C)c2c1 [Example D109, N-(2-(5-methoxy-1H-indol-3-yl)ethyl)-5-methyl-3-phenylisoxazole-4-carboxamide] | 5.51 |
| COc1ccccc1Cc1nc(C(=O)NCCc2c[nH]c3ccc(Cl)cc23)no1 [Example D183, N-(2-(5-chloro-1H-indol-3-yl)ethyl)-5-(2-methoxybenzyl)-1,2,4-oxadiazole-3-carboxamide] | 7.33 |
| O=C(NCCc1c[nH]c2ccc(Cl)cc12)N1CCC(c2ccccc2)C1 (centres unmarked) [Example D63, N-(2-(5-chloro-1H-indol-3-yl)ethyl)-3-phenylpyrrolidine-1-carboxamide] | 6.52 |
| Cc1ccc(-c2nc(C)c(C(=O)NCCc3c[nH]c4ccccc34)s2)cc1 [Example D24, N-(2-(1H-indol-3-yl)ethyl)-4-methyl-2-p-tolylthiazole-5-carboxamide] | 7.47 |
| O=C(NCCc1c[nH]c2ccc(Cl)cc12)C1CCN(c2ccc(C(F)(F)F)c(F)c2)C1=O (centres unmarked) [Example D150, N-(2-(5-chloro-1H-indol-3-yl)ethyl)-1-(3-fluoro-4-(trifluoromethyl)phenyl)-2-oxopyrrolidine-3-carboxamide] | 4.63 |
| O=C(NCCCc1c[nH]c2ccc(Cl)cc12)c1cc(Cc2cccc(F)c2)on1 [Example D35, N-(3-(5-chloro-1H-indol-3-yl)propyl)-5-(3-fluorobenzyl)isoxazole-3-carboxamide] | 7.22 |
| O=C(NCCc1c[nH]c2ccc(Cl)cc12)c1cc(C(O)c2ccccc2)on1 (centres unmarked) [Example D195, N-(2-(5-chloro-1H-indol-3-yl)ethyl)-5-(hydroxy(phenyl)methyl)isoxazole-3-carboxamide] | 7.00 |
| COc1ccccc1Cc1cc(C(=O)NCCc2c[nH]c3ccc(Cl)cc23)no1 [Example D8, N-(2-(5-chloro-1H-indol-3-yl)ethyl)-5-(2-methoxybenzyl)isoxazole-3-carboxamide] | 7.80 |
| CCOCC1CC(C(=O)NCCc2c[nH]c3ccc(Cl)cc23)=NO1 (centres unmarked) [Example D216, N-(2-(5-chloro-1H-indol-3-yl)ethyl)-5-(ethoxymethyl)-4,5-dihydroisoxazole-3-carboxamide] | 7.11 |
| Cn1cc(CCNC(=O)c2cc(Cc3cccc(F)c3)on2)c2cc(Cl)ccc21 [Example D51, N-(2-(5-chloro-1-methyl-1H-indol-3-yl)ethyl)-5-(3-fluorobenzyl)isoxazole-3-carboxamide] | 6.80 |
| O=C(NCCc1c[nH]c2ccc(Cl)cc12)c1cc(-c2ccccc2)on1 [Example D36, N-(2-(5-chloro-1H-indol-3-yl)ethyl)-5-phenylisoxazole-3-carboxamide] | 7.21 |
| O=C(NCCc1c[nH]c2ccc(Cl)cc12)c1cc(C(=O)c2cc(F)ccc2F)on1 [Example D194, N-(2-(5-chloro-1H-indol-3-yl)ethyl)-5-(2,5-difluorobenzoyl)isoxazole-3-carboxamide] | 6.95 |
| O=C(NCCc1c[nH]c2ccc(C(F)(F)F)cc12)c1cc(Cc2cc(F)ccc2F)on1 [Example D135, 5-(2,5-difluorobenzyl)-N-(2-(5-(trifluoromethyl)-1H-indol-3-yl)ethyl)isoxazole-3-carboxamide] | 6.84 |
| O=C(NCCc1c[nH]c2ccc(Cl)cc12)C1CCN(c2ccc3c(c2)CCC3)C1=O (centres unmarked) [Example D145, N-(2-(5-chloro-1H-indol-3-yl)ethyl)-1-(2,3-dihydro-1H-inden-5-yl)-2-oxopyrrolidine-3-carboxamide] | 6.86 |
| O=C(NCCc1c[nH]c2ccc(Cl)cc12)C1CCN(c2ccc(C(F)(F)F)cc2)C1=O (centres unmarked) [Example D132, N-(2-(5-chloro-1H-indol-3-yl)ethyl)-2-oxo-1-(4-(trifluoromethyl)phenyl)pyrrolidine-3-carboxamide] | 7.24 |
| O=C(NCCc1c[nH]c2ccc(Cl)cc12)c1cc(CN2CCCC2)on1 [Example D61, N-(2-(5-chloro-1H-indol-3-yl)ethyl)-5-(pyrrolidin-1-ylmethyl)isoxazole-3-carboxamide] | 6.64 |
| Cc1cccc(Cc2nc(C(=O)NCCc3c[nH]c4ccc(Cl)cc34)no2)c1 [Example D184, N-(2-(5-chloro-1H-indol-3-yl)ethyl)-5-(3-methylbenzyl)-1,2,4-oxadiazole-3-carboxamide] | 7.59 |
| CCc1ccc(N2CCC(C(=O)NCCc3c[nH]c4ccc(Cl)cc34)C2=O)cc1 (centres unmarked) [Example D40, N-(2-(5-chloro-1H-indol-3-yl)ethyl)-1-(4-ethylphenyl)-2-oxopyrrolidine-3-carboxamide] | 7.04 |
| O=C(NCCc1c[nH]c2ccc(Cl)cc12)C1CC(c2ccccc2)=NO1 (centres unmarked) [Example D50, N-(2-(5-chloro-1H-indol-3-yl)ethyl)-3-phenyl-4,5-dihydroisoxazole-5-carboxamide] | 6.82 |
